Assay results reported in publication PMC7582705, “Structure-Based Discovery of Novel Chemical Classes of Autotaxin Inhibitors” (International Journal of Molecular Sciences, 2020).

Assays:
[1] = molecular target: T1, ATX (Homo sapiens, UniProt Q13822); assay: IC50 Eleanna (Table S2, method not described); assay type: biochemical; conditions: Table S2; read-out: IC50 Eleanna
[2] = molecular target: T1, ATX; assay: Amplex Red Lyso-phospholipase D assay, human ATX; assay type: biochemical; set-up: purchased Sino Biological; conditions: for inhibition at 30 µM: read-out: %inhibition at 30uM; for IC50: Table S2, Sino hATX 2nM
Procedure: All compounds proposed were assessed for their ATX inhibitory activity in vitro using the Amplex Red assay. The Amplex Red Lyso-phospholipase D assay is a fluorometry-based assay providing a sensitive method for measuring Lyso-phospholipase D (ATX) activity in vitro. In this enzyme-coupled assay, ATX activity is monitored indirectly using 10-acetyl-3,7-dihydrophenoxazine (Amplex Red reagent), a sensitive fluorogenic probe for H2O2. ATX initially cleaves the Lysophosphatidylcholine (LPC) substrate to yield choline and Lysophosphatidic acid (LPA), while choline gets subsequently oxidized by choline oxidase to betaine and H2O2. Lastly, H2O2, in the presence of horseradish peroxidase (HRP), reacts with Amplex Red reagent in a 1:1 stoichiometry to generate the highly fluorescent product resorufin.
The inhibition assay was performed as previously described with some modifications in order to accommodate the newly-discovered lag phase in ATX kinetics. To this end, and in order to provide adequate time to the hydrolysis of LPC by ATX, we added a 30min incubation period between ATX, inhibitors and LPC. Briefly, 2 μL of different concentrations of inhibitors diluted in DMSO (Sigma-Aldrich, St. Louis, MO, USA) were incubated with 50 µL of ATX 8 nM (human or mouse ATX from Sino Biological), and 48 µL reaction buffer (50 mM Tris-Cl pH 8.0 from Thermo Fisher Scientific, Waltham, MA, USA and 5 mM CaCl2 from Honeywell-Fluka, Charlotte, NC, USA) in a black 96-well microplate for 15 min at 37 °C. Thence, another 50 µL of reaction buffer with 200 μM LPC substrate 16:0 (Avanti Polar Lipids Inc, Alabaster, AL, USA) ([…]) was added to the reaction mixture and incubated for 30 min at 37 °C in order for ATX to convert LPC to LPA and choline. Finally, 50 µL of working solution containing 200 μM Amplex Red (Invitrogen, Carlsbad, CA, USA), 4 U/mL HRP (Sigma-Aldrich, St. Louis, MO, USA), 0.4 U/mL choline oxidase (Sigma-Aldrich, St. Louis, MO, USA) in 50 mM Tris-HCl pH 8.0 and 5 mM CaCl2 was added to measure the produced choline. The reaction was monitored at 37 °C in a fluorescence plate reader using excitation at 530 nm and reading at 590 nm, every 5 min for 30 min. The velocity of the reaction and the remaining activity of ATX were calculated at the linear phase of the reaction and dose-response inhibition graphs were plotted with GraphPad Software (GraphPad Software, San Diego, CA, USA). […] In order to evaluate a possible effect of the compounds on the second (choline oxidase) and third (HRP) enzymes of the Amplex Red assay, we also performed the assay in the absence of ATX but in the presence of the compounds. Instead of ATX, we added choline chloride at a final concentration of 2 µM so as the second and third steps of the assay could proceed normally.

Row | IC50 [1] [µM] | inhibition at 30 µM ([2]; Table S2, at 30uM) [%] | IC50 ([2]; in vitro IC50 (Sino hATX 2nM)) [µM] | %inhibition at 30uM ([2]; Table S2, at 30uM) [%] | IC50 ([2]; read-out: in vitro IC50 (Sino hATX 2nM)) [µM] | Compound
1 | 5 | 16 | > 30 |  |  | O=C(Cn1cnc2ccsc2c1=O)c1c(-c2ccccc2)[nH]c2ccccc12 [SC-34, 3-[2-oxo-2-(2-phenyl-1H-indol-3-yl)ethyl]thieno[3,2-d]pyrimidin-4-one]
2 | 5 | 17.1 | > 30 |  |  | COc1ccccc1C(=O)NCc1nc2ccccc2n1Cc1cc(C)ccc1C [KM-9, N-[[1-[(2,5-dimethylphenyl)methyl]benzimidazol-2-yl]methyl]-2-methoxybenzamide,]
3 | > 5 |  | > 30 |  |  | COc1ccc2c(CNC3CCC(C)CC3)c(C(=O)O)n(Cc3ccccc3)c2c1 (stereo not shown) [KM-47, 1-benzyl-6-methoxy-3-[[(4-methylcyclohexyl)amino]methyl]indole-2-carboxylic acid]
4 | 0.6 | 4.2 | > 30 |  |  | Cc1ccccc1-n1nc2c(c1NC(=O)c1cccc3ccccc13)C[S+]([O-])C2 (stereo not shown) [SC-3, N-[2-(2-methylphenyl)-5-oxo-4,6-dihydrothieno[3,4-c]pyrazol-3-yl]naphthalene-1-carboxamide]
5 | > 5 | 13.6 | > 30 |  |  | Cc1ccc(-n2nc3c(c2NC(=O)c2cccc4ccccc24)C[S+]([O-])C3)cc1 (stereo not shown) [SC-16, N-[2-(4-methylphenyl)-5-oxo-4,6-dihydrothieno[3,4-c]pyrazol-3-yl]naphthalene-1-carboxamide]
6 | 5 | 9.71 | > 30 |  |  | CCc1ccc([C@H](NC(=O)CCN2C(=O)[C@@H](C)Oc3ccccc32)c2cccs2)cc1 [KM-36, N-[(S)-(4-ethylphenyl)-thiophen-2-ylmethyl]-3-[(2R)-2-methyl-3-oxo-1,4-benzoxazin-4-yl]propanamide]
7 | > 5 |  | > 30 |  |  | O=C(Cc1cccc2ccccc12)Nc1c2c(nn1-c1ccccc1)C[S+]([O-])C2 (stereo not shown) [SC-7, 2-naphthalen-1-yl-N-(5-oxo-2-phenyl-4,6-dihydrothieno[3,4-c]pyrazol-3-yl)acetamide]
8 | > 5 | 9.6 | > 30 |  |  | O=C(Nc1c2c(nn1-c1ccc(F)cc1)C[S+]([O-])C2)c1cccc2ccccc12 (stereo not shown) [SC-14, N-[2-(4-fluorophenyl)-5-oxo-4,6-dihydrothieno[3,4-c]pyrazol-3-yl]naphthalene-1-carboxamide]
9 | > 5 |  | > 30 |  |  | Cc1ccc(-n2nc3c(c2NC(=O)c2cccc4ccccc24)CS(=O)(=O)C3)cc1 [SC-43, N-[2-(4-methylphenyl)-5,5-dioxo-4,6-dihydrothieno[3,4-c]pyrazol-3-yl]naphthalene-1-carboxamide]
10 | > 5 |  | > 30 |  |  | Cc1nc(-c2ccc(NS(=O)(=O)c3ccc4c5c(cccc35)CC4)cc2)cs1 [SC-30, N-[4-(2-methyl-1,3-thiazol-4-yl)phenyl]-1,2-dihydroacenaphthylene-5-sulfonamide]
11 | 4 | 18.2 | > 30 |  |  | O=C(Nc1c2c(nn1-c1ccc(F)cc1)C[S+]([O-])C2)c1ccc2ccccc2c1 (stereo not shown) [SC-24, N-[2-(4-fluorophenyl)-5-oxo-4,6-dihydrothieno[3,4-c]pyrazol-3-yl]naphthalene-2-carboxamide]
12 | 1.3 | 35.3 | > 30 |  |  | CC1Cc2nc(SCC(=O)NCc3ccc(F)cc3)n(Cc3ccccc3)c(=O)c2S1 (stereo not shown) [KM-45, 2-[(3-benzyl-6-methyl-4-oxo-6,7-dihydrothieno[3,2-d]pyrimidin-2-yl)sulfanyl]-N-[(4-fluorophenyl)methyl]acetamide]
13 | > 5 |  | > 30 |  |  | COc1ccc(C2SCCN2S(=O)(=O)c2ccc3c(c2)Cc2ccccc2-3)cc1 (stereo not shown) [SC-8, 3-(9H-fluoren-2-ylsulfonyl)-2-(4-methoxyphenyl)-1,3-thiazolidine]
14 | 4.5 |  | > 30 |  |  | COc1ccc(NC(=S)N2CCn3cccc3C2c2ccc(OC)c(OC)c2)cc1 (stereo not shown) [KM-31, 1-(3,4-dimethoxyphenyl)-N-(4-methoxyphenyl)-3,4-dihydro-1H-pyrrolo[1,2-a]pyrazine-2-carbothioamide]
15 | > 5 |  | > 30 |  |  | Cc1ncc(-c2ccc(NS(=O)(=O)c3ccc4c5c(cccc35)CC4)cc2)o1 [SC-37, N-[4-(2-methyl-1,3-oxazol-5-yl)phenyl]-1,2-dihydroacenaphthylene-5-sulfonamide]
16 | > 5 |  | > 30 |  |  | Cc1ccc(-n2nc3c(c2NC(=O)c2ccc4ccccc4c2)C[S+]([O-])C3)cc1 (stereo not shown) [SC-27, N-[2-(4-methylphenyl)-5-oxo-4,6-dihydrothieno[3,4-c]pyrazol-3-yl]naphthalene-2-carboxamide]
17 | > 5 |  | > 30 |  |  | O=C1NC(=O)C(=Cc2cn(Cc3ccc4ccccc4c3)c3ccccc23)S1 [SC-45, 5-[[1-(naphthalen-2-ylmethyl)indol-3-yl]methylidene]-1,3-thiazolidine-2,4-dione]
18 | 2.2 | 43 | 30 |  |  | O=C(Cc1cccc2ccccc12)Nc1c2c(nn1-c1ccccc1)CS(=O)(=O)C2 [SC-5, N-(5,5-dioxo-2-phenyl-4,6-dihydrothieno[3,4-c]pyrazol-3-yl)-2-naphthalen-1-ylacetamide]
19 | 3.4 | 38.6 | > 30 |  |  | Cc1ccccc1-n1nc2c(c1NC(=O)c1ccc3ccccc3c1)CS(=O)(=O)C2 [SC-47, N-[2-(2-methylphenyl)-5,5-dioxo-4,6-dihydrothieno[3,4-c]pyrazol-3-yl]naphthalene-2-carboxamide]
20 |  |  |  | 41.295 | > 30 | CCOC(=O)c1c(-c2ccccc2)oc2ccc(O)c(CN3CCC(C)CC3)c12.Cl [KM-40, ethyl 5-hydroxy-4-[(4-methylpiperidin-1-yl)methyl]-2-phenyl-1-benzofuran-3-carboxylate;hydrochloride]
21 | > 5 |  | > 30 |  |  | CN1C(=O)C(=NNC(=O)c2cc(-c3cccs3)nc3ccccc23)c2ccccc21 [SC-40, N-[(1-methyl-2-oxoindol-3-ylidene)amino]-2-thiophen-2-ylquinoline-4-carboxamide]
22 | > 5 |  | > 30 |  |  | CCc1ccccc1NC(=O)C1c2ccccc2C(=O)N(CCOC)C1c1cccs1 (stereo not shown) [KM-4, N-(2-ethylphenyl)-2-(2-methoxyethyl)-1-oxo-3-thiophen-2-yl-3,4-dihydroisoquinoline-4-carboxamide]
23 | 5 |  | > 30 |  |  | Cc1cc(C)cc(NC(=O)CSc2cn(CC(=O)N3CCCC3)c3ccccc23)c1 [KM-50, N-(3,5-dimethylphenyl)-2-[1-(2-oxo-2-pyrrolidin-1-ylethyl)indol-3-yl]sulfanylacetamide]
24 | > 5 |  | > 30 |  |  | O=C(Nc1c2c(nn1-c1ccccc1)CS(=O)(=O)C2)c1cccc2ccccc12 [SC-6, N-(5,5-dioxo-2-phenyl-4,6-dihydrothieno[3,4-c]pyrazol-3-yl)naphthalene-1-carboxamide]
25 | 4.5 | 20.6 | > 30 |  |  | CCOC(=O)c1c(CN2CCCCC2)n(-c2ccccc2)c2cc(Br)c(OC)cc12 [KM-6, ethyl 6-bromo-5-methoxy-1-phenyl-2-(piperidin-1-ylmethyl)indole-3-carboxylate]
26 | 5 |  | > 30 |  |  | CCOC(=O)c1c(-c2ccccc2)oc2ccc(O)c(CN3CCC(C)CC3)c12 [KM-39, 3-ethoxycarbonyl-4-[(4-methylpiperidin-1-ium-1-yl)methyl]-2-phenyl-1-benzofuran-5-olate]
27 | 4.53 |  | > 30 |  |  | O=C1c2ccccc2-c2ccc(C(=O)N3CCN(C(=O)c4cccs4)CC3)cc21 [SC-42, 2-[4-(thiophene-2-carbonyl)piperazine-1-carbonyl]fluoren-9-one]
28 | > 5 |  | > 30 |  |  | Cc1ccc(S(=O)(=O)N2CCN3C(=O)c4ccccc4C32c2ccccc2)cc1 (stereo not shown) [SC-26, 1-(4-methylphenyl)sulfonyl-9b-phenyl-2,3-dihydroimidazo[2,1-a]isoindol-5-one]
